According to US20250281457A1, “TREATMENT OR PREVENTION OF DENGUE VIRAL INFECTION” (Janssen Pharmaceuticals, Inc., priority 2022, published 2025):
Like-named read-outs stand apart in the source and are kept apart here.

Experiment: Plasma pharmacokinetics with loading dose and weekly or twice weekly maintenance dosing, fed (Example 5)
Type: in vivo, human
Conditions: human, plasma, oral; for Cmax: read-out: Mean Cmax (SD); for AUC: read-out: Mean AUCτ (SD); for AUC(0-inf): read-out: Mean AUC∞ (SD); for concentration at 72 h: read-out: Mean C72 h (SD)
Method: A pharmaceutical formulation comprising Compound (a) as described in Example 2 (SF2a/b) was administered as an oral dosage form, to healthy adult participants, in a fed state. Four dose regimens were applied: • Panel I (weekly dosing): 450 mg of Compound (a) twice a day (BID) for two days: on day 1 (D1) and on day 2 (D2) (loading dose); and then 900 mg once a week (Q7D), on day 3 (D3), day 10 (D10), day 17 (D17), and on day 24 (D24) (maintenance dose). • Panel II (biweekly dosing): 450 mg of Compound (a) twice a day (BID) for two days: on day 1 (D1) and on day 2 (D2); (loading dose) and then 450 mg once every 3 (Q3D) or 4 days (Q4D): on day 3 (D3), on day 6 (D6), on day 10 (D10), on day 13 (D13), on day 17 (D17), on day 20 (D20), on day 24 (D24), and on day 27 (D27), for a total of 900 mg each week administered through two doses of 450 mg each (maintenance dose). • Panel III (weekly dosing): 150 mg of Compound (a) twice a day (BID) for two days: on day 1 (D1) and on day 2 (D2) (loading dose); and then 300 mg once a week (Q7D): on day 3 (D3), day 10 (D10), day 17 (D17), and on day 24 (D24) (maintenance dose). • Panel IV (biweekly dosing): 150 mg of Compound (a) twice a day (BID) for two days: on day 1 (D1) and on day 2 (D2) (loading dose); and then 150 mg Q3D or Q4D: on day 3 (D3), on day 6 (D6), on day 10 (D10), on day 13 (D13), on day 17 (D17), on day 20 (D20), on day 24 (D24), and on day 27 (D27), for a total of 300 mg each week administered through two doses of 150 mg each (maintenance dose).
Oral dosage forms were administered together with approximately 240 mL of non-carbonated water under fed conditions, and were taken within 10 minutes after completion of normal standardized normal fat breakfast in the morning or after completion of normal standardized normal fat dinner in case of evening dosing. Intake of Compound (a) took place at around the same time each day. Intake of Compound (a) marked time 0 hours.
A standardized normal fat meal was served approximately 30 minutes before study drug intake. The standardized normal fat meal contained approximately 21 g of fat, 67 g of carbohydrates, 19 g of proteins resulting in around 533 kcal (an example meal is 4 slices of bread, 2 slices of ham or cheese, butter, jelly, and 1 or 2 cups (up to 355 mL) of decaffeinated coffee or tea with milk and/or sugar). The standardized normal fat meal was ingested entirely within 30 minutes or less. Within 10 minutes after completing the meal, but no more than 30 minutes after the start of the meal, study drug was administered. In case of Compound (a) intake in the evening, timing of standardized dinner was aligned to time of drug intake. […]
For Study Panel 1 only, additional whole blood samples were be collected on Days 1, 24, 25, 26, 38, 45, 51, and 59 using venipuncture. The whole blood samples were be used for the determination of Compound (a) whole blood concentrations and for determination of Compound (a) plasma concentrations. To determine Compound (a) venous whole blood concentrations, an aliquot of the whole blood sample was be pipetted onto the TASSO M-20 for better comparison with capillary whole blood samples collected by TASSO M-20. […]
Separation between metabolites and interfering endogenous compounds was achieved by injecting 2 μL sample extract onto an Acquity UPLC BEH C18 column (50×2.1 mm, 1.7 μm, Waters) at 50° C. and using 10 mM ammonium bicarbonate solution as mobile phase A, and methanol: acetonitrile (50:50, v/v) as mobile phase B. A gradient elution at a flow rate of 0.600 mL/min was applied using the following program: 35% B was increased to 90% B in 3 min, was further increased to 98% B at 3.01 min and held constant up to 4.00 min.
A Triple Quad 6500+ mass spectrometer (Sciex) equipped with a turbo ion spray source was used for analyte detection in positive ion mode using electrospray ionization. […]

[1] = 450 mg, Panel I (450 mg BID Days 1-2, then 900 mg Q7D; SF2a/b, fed), Day 2
[2] = 450 mg, Panel II (450 mg BID Days 1-2, then 450 mg Q3D/Q4D; SF2a/b, fed), Day 27
[3] = Panel I (450 mg BID Days 1-2, then 900 mg Q7D; SF2a/b, fed), Day 24
[4] = Panel II (450 mg BID Days 1-2, then 450 mg Q3D/Q4D; SF2a/b, fed), Day 2
[5] = Panel III (150 mg BID Days 1-2, then 300 mg Q7D; SF2a/b, fed), Day 24
[6] = Panel IV (150 mg BID Days 1-2, then 150 mg Q3D/Q4D; SF2a/b, fed), Day 2

Cmax (300 mg, Panel III (150 mg BID Days 1-2, then 300 mg Q7D; SF2a/b, fed), Day 3): 3100 ng/mL | Tmax (300 mg, Panel III (150 mg BID Days 1-2, then 300 mg Q7D; SF2a/b, fed), Day 3, read-out: Median tmax (min-max)): 5 h | AUC (450 mg, Panel I (450 mg BID Days 1-2, then 900 mg Q7D; SF2a/b, fed), Day 1): 17.5 µg·h/mL | Tmax (450 mg, Panel I (450 mg BID Days 1-2, then 900 mg Q7D; SF2a/b, fed), Day 1, read-out: Median tmax (min-max)): 7.5 h | AUC [1]: 46.5 µg·h/mL | Cmax [1]: 5080 ng/mL | Tmax (450 mg, Panel I (450 mg BID Days 1-2, then 900 mg Q7D; SF2a/b, fed), Day 2, read-out: Median tmax (min-max)): 5.5 h | Cmax (450 mg, Panel II (450 mg BID Days 1-2, then 450 mg Q3D/Q4D; SF2a/b, fed), Day 1): 1960 ng/mL | AUC(0-t) (450 mg, Panel II (450 mg BID Days 1-2, then 450 mg Q3D/Q4D; SF2a/b, fed), Day 3, read-out: Mean AUC24 h (SD)): 110 µg·h/mL | AUC(0-t) (450 mg, Panel II (450 mg BID Days 1-2, then 450 mg Q3D/Q4D; SF2a/b, fed), Day 3, read-out: Mean AUC72 h (SD)): 263 µg·h/mL | Cmax (450 mg, Panel II (450 mg BID Days 1-2, then 450 mg Q3D/Q4D; SF2a/b, fed), Day 3): 5950 ng/mL | Tmax (450 mg, Panel II (450 mg BID Days 1-2, then 450 mg Q3D/Q4D; SF2a/b, fed), Day 3, read-out: Median tmax (min-max)): 6.5 h | Cmax (450 mg, Panel II (450 mg BID Days 1-2, then 450 mg Q3D/Q4D; SF2a/b, fed), Day 6): 4380 ng/mL | Cmax (450 mg, Panel II (450 mg BID Days 1-2, then 450 mg Q3D/Q4D; SF2a/b, fed), Day 10): 4080 ng/mL | Cmax (450 mg, Panel II (450 mg BID Days 1-2, then 450 mg Q3D/Q4D; SF2a/b, fed), Day 13): 4070 ng/mL | Cmax (450 mg, Panel II (450 mg BID Days 1-2, then 450 mg Q3D/Q4D; SF2a/b, fed), Day 17): 3940 ng/mL | Cmax (450 mg, Panel II (450 mg BID Days 1-2, then 450 mg Q3D/Q4D; SF2a/b, fed), Day 20): 4060 ng/mL | Cmax (450 mg, Panel II (450 mg BID Days 1-2, then 450 mg Q3D/Q4D; SF2a/b, fed), Day 24): 3920 ng/mL | AUC(0-t) (450 mg, Panel II (450 mg BID Days 1-2, then 450 mg Q3D/Q4D; SF2a/b, fed), Day 27, read-out: Mean AUC24 h (SD)): 74.2 µg·h/mL | AUC(0-t) (450 mg, Panel II (450 mg BID Days 1-2, then 450 mg Q3D/Q4D; SF2a/b, fed), Day 27, read-out: Mean AUC72 h (SD)): 197 µg·h/mL | AUC(0-t) (450 mg, Panel II (450 mg BID Days 1-2, then 450 mg Q3D/Q4D; SF2a/b, fed), Day 27, read-out: Mean AUClast (SD)): 771 µg·h/mL | AUC(0-inf) [2]: 809 µg·h/mL | Cmax [2]: 3980 ng/mL | Tmax (450 mg, Panel II (450 mg BID Days 1-2, then 450 mg Q3D/Q4D; SF2a/b, fed), Day 27, read-out: Median tmax (min-max)): 6 h | AUC(0-t) (900 mg, Panel I (450 mg BID Days 1-2, then 900 mg Q7D; SF2a/b, fed), Day 3, read-out: Mean AUC24 h (SD)): 129 µg·h/mL | AUC(0-t) (900 mg, Panel I (450 mg BID Days 1-2, then 900 mg Q7D; SF2a/b, fed), Day 3, read-out: Mean AUC72 h (SD)): 318 µg·h/mL | Cmax (900 mg, Panel I (450 mg BID Days 1-2, then 900 mg Q7D; SF2a/b, fed), Day 3): 6560 ng/mL | Tmax (900 mg, Panel I (450 mg BID Days 1-2, then 900 mg Q7D; SF2a/b, fed), Day 3, read-out: Median tmax (min-max)): 5 h | Cmax (Panel I (450 mg BID Days 1-2, then 900 mg Q7D; SF2a/b, fed), Day 1): 2020 ng/mL | Cmax (Panel I (450 mg BID Days 1-2, then 900 mg Q7D; SF2a/b, fed), Day 10): 4240 ng/mL | Cmax (Panel I (450 mg BID Days 1-2, then 900 mg Q7D; SF2a/b, fed), Day 17): 4280 ng/mL | AUC(0-t) (Panel I (450 mg BID Days 1-2, then 900 mg Q7D; SF2a/b, fed), Day 24, read-out: Mean AUC24 h (SD)): 79.7 µg·h/mL | AUC(0-t) (Panel I (450 mg BID Days 1-2, then 900 mg Q7D; SF2a/b, fed), Day 24, read-out: Mean AUC72 h (SD)): 195 µg·h/mL | AUC(0-t) (Panel I (450 mg BID Days 1-2, then 900 mg Q7D; SF2a/b, fed), Day 24, read-out: Mean AUClast (SD)): 657 µg·h/mL | AUC(0-inf) [3]: 676 µg·h/mL | Cmax [3]: 4260 ng/mL | Tmax (Panel I (450 mg BID Days 1-2, then 900 mg Q7D; SF2a/b, fed), Day 24, read-out: Median tmax (min-max)): 6 h | AUC (Panel II (450 mg BID Days 1-2, then 450 mg Q3D/Q4D; SF2a/b, fed), Day 1): 15.5 µg·h/mL | Tmax (Panel II (450 mg BID Days 1-2, then 450 mg Q3D/Q4D; SF2a/b, fed), Day 1, read-out: Median tmax (min-max)): 5.5 h | AUC [4]: 44.9 µg·h/mL | Cmax [4]: 4640 ng/mL | Tmax (Panel II (450 mg BID Days 1-2, then 450 mg Q3D/Q4D; SF2a/b, fed), Day 2, read-out: tmax): 5 h | Cmax (Panel III (150 mg BID Days 1-2, then 300 mg Q7D; SF2a/b, fed), Day 1): 741 ng/mL | Cmax (Panel III (150 mg BID Days 1-2, then 300 mg Q7D; SF2a/b, fed), Day 10): 2180 ng/mL | Cmax (Panel III (150 mg BID Days 1-2, then 300 mg Q7D; SF2a/b, fed), Day 17): 2050 ng/mL | AUC(0-t) (Panel III (150 mg BID Days 1-2, then 300 mg Q7D; SF2a/b, fed), Day 24, read-out: Mean AUC24 h (SD)): 37.2 µg·h/mL | AUC(0-t) (Panel III (150 mg BID Days 1-2, then 300 mg Q7D; SF2a/b, fed), Day 24, read-out: Mean AUC72 h (SD)): 92.5 µg·h/mL | AUC(0-t) (Panel III (150 mg BID Days 1-2, then 300 mg Q7D; SF2a/b, fed), Day 24, read-out: Mean AUClast (SD)): 299 µg·h/mL | AUC(0-inf) [5]: 325 µg·h/mL | Cmax [5]: 2130 ng/mL | Tmax (Panel III (150 mg BID Days 1-2, then 300 mg Q7D; SF2a/b, fed), Day 24, read-out: Median tmax (min-max)): 7 h | AUC (Panel IV (150 mg BID Days 1-2, then 150 mg Q3D/Q4D; SF2a/b, fed), Day 1): 5.98 µg·h/mL | Tmax (Panel IV (150 mg BID Days 1-2, then 150 mg Q3D/Q4D; SF2a/b, fed), Day 1, read-out: Median tmax (min-max)): 5 h | AUC [6]: 15.8 µg·h/mL | Cmax [6]: 1600 ng/mL | Tmax (Panel IV (150 mg BID Days 1-2, then 150 mg Q3D/Q4D; SF2a/b, fed), Day 2, read-out: tmax): 5 h | concentration at 72 h (Panel I (450 mg BID Days 1-2, then 900 mg Q7D; SF2a/b, fed), Day 3): 3440 ng/mL | concentration at 72 h (Panel II (450 mg BID Days 1-2, then 450 mg Q3D/Q4D; SF2a/b, fed), Day 3): 2710 ng/mL | concentration at 72 h (Panel III (150 mg BID Days 1-2, then 300 mg Q7D; SF2a/b, fed), Day 3): 1210 ng/mL | concentration at 72 h (Panel IV (150 mg BID Days 1-2, then 150 mg Q3D/Q4D; SF2a/b, fed), Day 3): 865 ng/mL
SMILES: COc1cc(NC(C(=O)c2c[nH]c3ccc(OC(F)(F)F)cc23)c2ccc(Cl)cc2OC)cc(S(C)(=O)=O)c1 (stereo not drawn) [Compound (a)]
